Data published in patent publication US11160793B2, “Solid dosage forms of bendamustine” (Astellas Deutschland GmbH, priority 2008, dated 2021).
Where a name gives a salt, the structure may show the parent alone.

Experiments:
[1] = Stability of aqueous solution of bendamustine as a function of pH (hydrolysis); type: physicochemical
[2] = 4.2-5.5 mg/kg, 7 patients, cited from earlier work
[3] = B6D2F1-mice, absorption from the gastro-intestinal tract; cited from earlier work

| Structure (SMILES) | pH above which significant hydrolytic decomposition is observed [1] | mean oral bioavailability ([2]; 25 mg capsules vs intravenous) | time to maximal plasma levels after oral administration ([2]; 25 mg capsules) | bio-availability [3] |
| --- | --- | --- | --- | --- |
| Cn1c(CCCC(=O)O)nc2cc(N(CCCl)CCCl)ccc21 [bendamustine, 4-[5-[bis(2-chloroethyl)amino]-1-methylbenzimidazo-2-yl]butanoic acid] | higher than 5 | – | – | – |
| Cn1c(CCCC(=O)O)nc2cc(N(CCCl)CCCl)ccc21 [bendamustine hydrochloride] | – | 57% | ≤ 1 h | about 40% |
